The nature of series [1]: Cytotoxicity against mouse BAF3 cells after 48 hrs by MTT assay. Type of series: cell-based.
A short description of series [2]: Cytotoxicity against human Nthy-ori 3-1 cells after 10 days by MTT assay. It is filed as cell-based. For orientation: Tetrazolium assays rely on reduction of a dye to a coloured formazan, in cell work by metabolically active cells.
Series [3] addresses T1, Proto-oncogene tyrosine-protein kinase receptor Ret (Homo sapiens, UniProt P07949). Kind of series: Inhibition of human wild type RET by radiometric assay in presence of [gamma-33P]-ATP.
Series [4] addresses Proto-oncogene tyrosine-protein kinase receptor Ret (Homo sapiens, UniProt P07949, V804M). Kind of series: Inhibition of human Ret V804M mutant by radiometric assay in presence of [gamma-33P]-ATP.
Series [5] concerns Proto-oncogene tyrosine-protein kinase receptor Ret (Homo sapiens), P07949 [V804M]. The note with it: BaF3.
Proto-oncogene tyrosine-protein kinase receptor Ret (Homo sapiens), P07949 [V804M], sequence (P07949 whole entry V804M): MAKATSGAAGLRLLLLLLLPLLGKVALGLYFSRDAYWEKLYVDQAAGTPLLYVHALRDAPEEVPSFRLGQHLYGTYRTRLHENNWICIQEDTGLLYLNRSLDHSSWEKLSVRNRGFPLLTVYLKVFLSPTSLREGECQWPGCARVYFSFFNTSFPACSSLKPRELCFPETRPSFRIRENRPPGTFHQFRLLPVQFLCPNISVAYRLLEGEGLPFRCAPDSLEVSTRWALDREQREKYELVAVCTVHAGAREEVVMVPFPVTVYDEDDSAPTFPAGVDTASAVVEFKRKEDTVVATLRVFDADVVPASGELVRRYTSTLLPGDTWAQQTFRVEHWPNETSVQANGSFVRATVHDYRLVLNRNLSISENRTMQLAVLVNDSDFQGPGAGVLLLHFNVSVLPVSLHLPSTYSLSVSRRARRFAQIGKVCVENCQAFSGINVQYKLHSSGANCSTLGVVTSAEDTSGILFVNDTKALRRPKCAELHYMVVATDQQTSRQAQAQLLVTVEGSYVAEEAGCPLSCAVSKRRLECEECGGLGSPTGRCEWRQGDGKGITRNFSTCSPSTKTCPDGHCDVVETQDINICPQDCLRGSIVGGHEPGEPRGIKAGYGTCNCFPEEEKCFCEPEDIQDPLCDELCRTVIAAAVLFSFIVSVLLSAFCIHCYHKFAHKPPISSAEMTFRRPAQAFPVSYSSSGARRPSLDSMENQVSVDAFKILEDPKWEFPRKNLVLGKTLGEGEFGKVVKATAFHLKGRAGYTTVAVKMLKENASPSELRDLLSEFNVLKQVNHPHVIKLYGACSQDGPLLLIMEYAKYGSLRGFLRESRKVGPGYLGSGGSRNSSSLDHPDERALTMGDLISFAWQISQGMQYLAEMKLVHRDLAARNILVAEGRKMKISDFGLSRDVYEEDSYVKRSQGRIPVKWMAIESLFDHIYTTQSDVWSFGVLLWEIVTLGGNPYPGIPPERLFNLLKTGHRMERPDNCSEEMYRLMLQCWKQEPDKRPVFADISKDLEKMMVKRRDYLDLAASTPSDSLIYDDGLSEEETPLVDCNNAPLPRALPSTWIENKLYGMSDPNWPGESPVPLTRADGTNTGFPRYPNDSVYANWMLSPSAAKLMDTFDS
Series [6] deals with T1, Proto-oncogene tyrosine-protein kinase receptor Ret. The note with it: BaF3.
Description: Inhibition of wild type TEL-fused RET (unknown origin) expressed in mouse BA/F3 cells assessed as cell growth inhibition after 48 hrs by MTT assay
Series [7] relates to Proto-oncogene tyrosine-protein kinase receptor Ret (Homo sapiens), P07949 [C634W]. Conditions: TT.
Proto-oncogene tyrosine-protein kinase receptor Ret (Homo sapiens), P07949 [C634W], sequence (P07949 whole entry C634W): as the sequence (P07949 whole entry V804M) above, with C634W, M804V counted along it
Description: Inhibition of RET C634W mutant in human TT cells assessed as cell growth inhibition after 10 days by MTT assay

A word on the GI50: it is the concentration giving 50% growth inhibition. Lower therefore signals more potent growth inhibition. In general, IC50 refers to the concentration at which inhibition is half-maximal.

Proto-oncogene tyrosine-protein kinase receptor Ret (Homo sapiens, UniProt P07949, V804M), sequence (P07949 29-1114 V804M limits assumed): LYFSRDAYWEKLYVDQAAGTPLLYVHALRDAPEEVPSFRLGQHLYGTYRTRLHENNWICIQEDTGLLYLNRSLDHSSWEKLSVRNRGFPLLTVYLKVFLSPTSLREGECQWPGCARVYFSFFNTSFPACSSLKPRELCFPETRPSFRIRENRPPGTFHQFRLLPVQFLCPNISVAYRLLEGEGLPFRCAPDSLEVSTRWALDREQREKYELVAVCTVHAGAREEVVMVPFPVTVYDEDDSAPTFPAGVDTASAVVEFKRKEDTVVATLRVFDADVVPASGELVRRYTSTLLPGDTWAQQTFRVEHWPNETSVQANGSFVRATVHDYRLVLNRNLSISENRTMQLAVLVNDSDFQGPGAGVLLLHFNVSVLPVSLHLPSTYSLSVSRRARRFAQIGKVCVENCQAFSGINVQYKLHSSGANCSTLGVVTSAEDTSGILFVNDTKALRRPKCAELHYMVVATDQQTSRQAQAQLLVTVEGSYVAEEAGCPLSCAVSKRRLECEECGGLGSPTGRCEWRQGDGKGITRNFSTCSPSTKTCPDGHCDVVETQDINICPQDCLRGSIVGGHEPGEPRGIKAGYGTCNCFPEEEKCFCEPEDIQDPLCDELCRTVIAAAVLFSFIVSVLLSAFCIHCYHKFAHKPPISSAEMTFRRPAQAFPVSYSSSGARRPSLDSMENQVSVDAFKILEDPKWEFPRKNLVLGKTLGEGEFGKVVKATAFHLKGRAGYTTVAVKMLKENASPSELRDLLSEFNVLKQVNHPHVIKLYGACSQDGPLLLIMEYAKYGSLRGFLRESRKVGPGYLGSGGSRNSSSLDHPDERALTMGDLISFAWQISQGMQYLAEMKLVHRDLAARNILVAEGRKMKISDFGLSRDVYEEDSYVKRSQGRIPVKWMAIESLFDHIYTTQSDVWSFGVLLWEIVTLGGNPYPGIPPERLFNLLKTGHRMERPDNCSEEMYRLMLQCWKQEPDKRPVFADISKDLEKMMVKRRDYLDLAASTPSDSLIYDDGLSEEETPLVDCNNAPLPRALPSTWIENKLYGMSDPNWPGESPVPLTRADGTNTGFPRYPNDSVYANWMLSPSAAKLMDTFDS
T1 sequence (P07949 whole entry): as the sequence (P07949 whole entry V804M) above, with M804V counted along it

With `Nc1ncnc2c1c(-c1cc(C3CC3)on1)nn2Cc1ccccc1`, the GI50 at 48 h in series [1] was > 10 µM. In addition, the GI50 at 240 h in series [2] is 39.6 µM. Besides, the IC50 in series [3] was 0.074 µM; in series [4], 0.557 µM. The GI50 in series [5], in series [6] and in series [7] was > 10 µM in each case.
Consider `CC(C)n1nc(-c2cc(Cc3ccccc3)on2)c2c(N)ncnc21`, for which the GI50 at 48 h in series [1] was > 10 µM. The molecule further registered a GI50 at 240 h in series [2] of 21.5 µM. Also, the results for the IC50 in series [3] and in series [4] were 0.241 µM and 1.99 µM, respectively. Further, the GI50 in series [5], in series [6] and in series [7] was > 10 µM in each case.
Turning to `CC(C)n1nc(-c2cc(-c3ccc(F)cc3)on2)c2c(N)ncnc21`, the GI50 at 48 h in series [1] is > 10 µM. Growth in series [2] was halved (GI50 at 240 h) at 9.77 µM. Further, the concentration for half-maximal inhibition (IC50) in series [3] was 0.15 µM. For the same molecule, the GI50 in series [5], in series [6] and in series [7] was > 10 µM each time.
With `CC(C)n1nc(/C=N/O)c2c(N)ncnc21`, the GI50 at 48 h in series [1] was > 10 µM. In series [2], this molecule gave a GI50 at 240 h of 107 µM. For the same molecule, the IC50 is 4.9 µM in series [3] and 3.68 µM in series [4]. Besides, the concentration for 50% growth inhibition (GI50) in series [5], in series [6] and in series [7] was > 10 µM in each case.
As for `CC(C)n1nc(C2=NOC(c3ccccc3)C2)c2c(N)ncnc21` (stereo not given), the GI50 at 48 h in series [1] is > 10 µM. This molecule yielded a GI50 at 240 h in series [2] of 18.9 µM. Also, the IC50 in series [3] worked out at 0.583 µM; in series [4], 5.68 µM. Further, the 50% growth inhibitory concentration (GI50) in series [5] is > 10 µM; in series [6], 6.24 µM; in series [7], > 10 µM.
Regarding `CC(C)n1nc(/C=N/OCc2ccccc2)c2c(N)ncnc21`, the GI50 at 48 h in series [1] is > 10 µM. For the same molecule, in series [2], halving of growth (GI50 at 240 h) required 9.85 µM. For the same molecule, the IC50 in series [3] worked out at 8.33 µM. The GI50 in series [5] is > 10 µM; in series [6] it was 7.41 µM; in series [7], 9.27 µM.
Consider `CCc1cc(-c2nn(C(C)C)c3ncnc(N)c23)no1`, for which the GI50 at 48 h in series [1] is > 10 µM. The GI50 at 240 h in series [2] stood at 28.6 µM. The half-inhibitory concentration (IC50) amounted to 0.041 µM in series [3] and 0.531 µM in series [4]. For the same molecule, the 50% growth inhibitory concentration (GI50) in series [5] amounted to 5.77 µM; in series [6], 1.56 µM; in series [7] it was 2.61 µM.
For the molecule `CC(C)n1nc(-c2cc(-c3ccccn3)on2)c2c(N)ncnc21`, the GI50 at 48 h in series [1] amounted to 5.3 µM. The same molecule registered a GI50 at 240 h in series [2] of 1.63 µM. Moreover, the IC50 in series [3] amounted to 0.91 µM; in series [4], 5.88 µM. In addition, the GI50 in series [5] was determined as 0.7 µM; in series [6] it was 1.11 µM; in series [7], 9.26 µM.
`CC(C)n1nc(-c2cc(-c3ccccc3)on2)c2c(N)ncnc21`: the GI50 at 48 h in series [1] was > 10 µM. Besides, growth in series [2] was halved (GI50 at 240 h) at 5.72 µM. Moreover, the IC50 in series [3] amounted to 0.19 µM. Besides, the GI50 in series [5] was 4.97 µM; in series [6] it was 3.46 µM; in series [7], > 10 µM.
On to `CC(C)c1cc(-c2nn(C(C)C)c3ncnc(N)c23)no1`, for which the 50% growth inhibitory concentration (GI50) at 48 h in series [1] is > 10 µM. The molecule further registered a GI50 at 240 h in series [2] of 23.7 µM. In addition, the IC50 in series [3] worked out at 0.041 µM; in series [4], 0.355 µM. Also, the GI50 in series [5] turned out to be 5.9 µM; in series [6] it was 2.4 µM; in series [7] it was 5.13 µM.
In the case of `CC(C)n1nc(-c2cc(C3CCCC3)on2)c2c(N)ncnc21`, the GI50 at 48 h in series [1] is > 10 µM. This molecule also displayed a 50% growth inhibitory concentration (GI50) at 240 h in series [2] of 11.5 µM. Further, the IC50 in series [3] worked out at 0.241 µM; in series [4] it was 1.57 µM. Further, the GI50 is > 10 µM in series [5], 7.12 µM in series [6] and > 10 µM in series [7].
For `CC(C)n1nc(-c2cc(C3CCCCC3)on2)c2c(N)ncnc21`, in series [1], the concentration for 50% growth inhibition (GI50) at 48 h is > 10 µM. The molecule further came in with a GI50 at 240 h in series [2] of 4.11 µM. In series [3], the IC50 amounted to 0.91 µM. Moreover, the concentration for 50% growth inhibition (GI50) is 4.73 µM in series [5], 9.5 µM in series [6] and > 10 µM in series [7].

The values above are taken from ChEMBL document CHEMBL3751668, “A Pyrazolo[3,4-d]pyrimidin-4-amine Derivative Containing an Isoxazole Moiety Is a Selective and Potent Inhibitor of RET Gatekeeper Mutants” (J Med Chem, 2016).
